The values that follow come from BindingDB's records for doi:10.1021/jm00139a009 (1981).

Structures are written as SMILES.

This test deals with T1, Dihydrofolate reductase (Rattus norvegicus, UniProt Q920D2).
T1 sequence (Q920D2 whole entry): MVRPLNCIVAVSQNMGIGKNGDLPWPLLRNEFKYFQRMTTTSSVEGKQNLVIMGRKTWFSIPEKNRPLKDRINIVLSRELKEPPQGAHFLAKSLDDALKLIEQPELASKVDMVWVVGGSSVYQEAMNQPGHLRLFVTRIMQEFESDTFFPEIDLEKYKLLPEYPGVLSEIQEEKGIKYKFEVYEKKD
The experiment in a line: Inhibitory activity against dihydrofolate reductase of rat liver.
What is called IC50 is the concentration at which inhibition is half-maximal. With `Nc1nc(N)c2c(Cl)c(NCc3cccc(Br)c3)ccc2n1`, it took 7.59 nM to reach half-maximal inhibition (IC50).
On to `Nc1nc(N)c2c(Cl)c(NC(=O)Cc3ccc4ccccc4c3)ccc2n1`, for which half-maximal inhibition (IC50) required 5.01 nM.
On to `Nc1nc(N)c2c(S(=O)(=O)c3ccc4ccccc4c3)cccc2n1`, for which the half-inhibitory concentration (IC50) came to 15100 nM.
Turning to `Nc1nc(N)c2cc(Cl)ccc2n1`, the IC50 worked out at 3980 nM.
Regarding `Nc1nc(N)c2c(Cl)c(N)ccc2n1`, the IC50 turned out to be 661 nM.
`Nc1nc(N)c2cc(C=O)ccc2n1`: the IC50 is 10000 nM.
To `NCc1ccc2nc(N)nc(N)c2c1` belongs 9330 nM; to `Nc1nc(N)c2cc(NC(=O)Cc3ccc4ccccc4c3)ccc2n1`, 5.01 nM.
Next, `Nc1nc(N)c2c(Sc3ccc4ccccc4c3)cccc2n1`: 7.08 nM; `Nc1nc(N)c2cc(NC(=O)Cc3ccc(Cl)cc3)ccc2n1`: 22.9 nM.
To `Nc1nc(N)c2c(/C=C\c3ccc4ccccc4c3)cccc2n1` belongs 5250 nM; to `Nc1nc(N)c2c(Cl)cccc2n1`, 562 nM; to `Nc1nc(N)c2c(Cl)c(Cl)ccc2n1`, 200 nM.
In the case of `Cc1c(NC(=O)Cc2ccc(Cl)c(Cl)c2)ccc2nc(N)nc(N)c12`, it took 17 nM to reach half-maximal inhibition (IC50).
Consider `Nc1nc(N)c2c([S+]([O-])c3ccc(Cl)c(Cl)c3)cccc2n1` (stereo not drawn), for which 55000 nM corresponded to half-maximal inhibition (IC50).
Next, `Nc1nc(N)c2cc(NCc3ccc(Cl)c(Cl)c3)ccc2n1`: 18.2 nM; `Nc1nc(N)c2cc(Sc3ccc(Cl)c(Cl)c3)ccc2n1`: 11 nM.
Regarding `Nc1nc(N)c2cc([S+]([O-])c3ccc4ccccc4c3)ccc2n1` (stereo not drawn), the IC50 is 7.08 nM.
In turn, `Nc1nc(N)c2c(CSc3ccc4ccccc4c3)cccc2n1` showed an IC50 of 10 nM.
Regarding `Nc1nc(N)c2c(/C=C/c3ccc4ccccc4c3)cccc2n1`, the IC50 came out at 3020 nM.
On to `Cc1ccc2nc(N)nc(N)c2c1`, for which the 50% inhibitory concentration (IC50) is 2190 nM.
To `Nc1nc(N)c2c(S(=O)(=O)c3ccc(Cl)c(Cl)c3)cccc2n1` belongs 57500 nM.
As to `Cc1c(NC(=O)Cc2cccc(Br)c2)ccc2nc(N)nc(N)c12`, half-maximal inhibition (IC50) required 33.9 nM.
With `Nc1nc(N)c2c(CSc3ccc(Cl)cc3)cccc2n1`, 19.9 nM corresponded to half-maximal inhibition (IC50).
For the compound `Cc1c(NC(=O)Cc2ccc3ccccc3c2)ccc2nc(N)nc(N)c12`, the half-maximal inhibitory concentration (IC50) came to 4.17 nM.
The compound `Nc1nc(N)c2c(Cl)c(Br)ccc2n1` gave a half-maximal inhibitory concentration (IC50) of 100 nM.
Take `Nc1nc(N)c2c(Cl)c(NC(=O)Cc3ccc(Cl)c(Cl)c3)ccc2n1`: the IC50 turned out to be 24 nM.
`Nc1nc(N)c2c(Sc3ccc(Cl)c(Cl)c3)cccc2n1`: the IC50 came to 200 nM.
`O=[N+]([O-])c1ccc(/C=C/C=C/c2ccccc2)cc1` had an IC50 of 3.98 nM.
To `Cc1cccc2nc(N)nc(N)c12` [GNF-Pf-690] belongs 813 nM; to `Nc1ccc2nc(N)nc(N)c2c1` [QUINAZOLINE-2,4,6-TRIAMINE], 26900 nM.
`Nc1nc(N)c2c(CCc3ccc4ccccc4c3)cccc2n1` [TCMDC-141975] showed a half-inhibitory concentration (IC50) of 19.9 nM.
As for `Nc1nc(N)c2cc(Sc3cccc(C(F)(F)F)c3)ccc2n1` [WR-159412], the IC50 was 36.3 nM.
